From patent US8337891B2, “Enteric coated composition comprising prostaglandin analogs as chloride channel opener” (Sucampo AG, priority 2003, dated 2012) come the findings set out here.

A short description of series [1]: ratio of monocyclic/bicyclic tautomer in pH2 solvent by 1H-NMR. The series is classed as physicochemical. As for the experimental part:
The compound 1 (bicyclic structure, solid) was dissolved in D2O—CD3OD(1:1), which was adjusted to pH 2 with DCl. The ratio of monocyclic tautomer/bicyclic tautomer of compound 1 in the pH2 solvent was determined with ^1H-NMR.
According to the same manner described in the test example 2, the ratio of monocyclic tautomer/bicyclic tautomer of compound 2 in pH2 solvent was determined by ^1H-NMR.

The nature of series [2]: tautomeric form of the solid compound. The series is classed as physicochemical. The conditions noted are these: provided as a solid compound.

Turning to `CCCCC(F)(F)[C@@]1(O)CC[C@H]2[C@@H](CC(=O)[C@@H]2CCCCCCC(=O)O)O1` [Compound 1, 13,14-dihydro-15-keto-16,16-difluoro-PGE1], in series [1] (D2O-CD3OD (1:1) adjusted to pH 2 with DCl, 1H-NMR, starting from solid bicyclic tautomer), the “Ratio of monocyclic tautomer (%)” value is 8.5%. Besides, in series [1] (pH2 solvent, bicyclic ring opened), the “compound converted into the monocyclic tautomer” value was “more than 5%”. Further, in series [2], the “proportion of the compound existing as the bicyclic structure” value is reported as roughly 100%.
